# Experimental data reported in patent publication US20230086152A1, “USE OF DESLORATADINE AND SALTS THEREOF IN PREPARING DRUG FOR TREATING NEURODEGENERATIVE DISEASE RELATED TO MOTOR DYSFUNCTION” (NANJING UNIVERSITY OF CHINESE MEDICINE, priority 2021, published 2023).
# Columns and labels:
# Format in all cases: in vivo
# [1] = system: SOD1-G93A model mice; test: Detection of onset time and survival cycle; conditions: model DLT group 20 mg/kg/day from the age of 56 days, p<0.05
# Text: 4) Detection on onset time and survival cycle: The duration from onset to death of SOD1-G93A model mice is shorter, which is similar to the human ALS. Whether it can effectively delay the onset of the disease and prolong the survival cycle is an important indicator.
# (§1) 1) Animal grouping: Experimental test mice B6SJL-BTg (SOD1-G93A) 1Gur/J (002726) are purchased from Jackson Laboratory in the United States. A total of 48 SOD1-G93A mice are obtained by the gene identification, and their littermates are used as negative control, and they are randomly divided into 4 groups, which are: (1) a wild-type solvent group (2) a wild-type DLT group (20 mg/kg/day), (3) a model solvent group and (4) a model DLT group (20 mg/kg/day). All mice are administered from the age of 56 days (8 weeks old), and 12 mice in each group are sacrificed from the beginning of administration to the age of 120 days. […]
# 5) Detection of onset time and survival cycle: The onset time of transgenic mice is defined as the dates when they first fall from the rotarod apparatus and will not persist for 180 seconds. The dates of deaths of the transgenic mice are defined as the deaths of the mice if the righting reflex cannot be completed within 30 seconds when the mice are lying on their sides, and the days are recorded as the death dates of the mice.
# [2] = system: SOD1-G93A model mice; test: Gait monitoring experimental test; conditions: model DLT group 20 mg/kg/day vs model solvent group; after the 15th week; FIG. 2
# Experimental: (§2) 1) Animal grouping: Experimental test mice B6SJL-BTg (SOD1-G93A) 1Gur/J (002726) are purchased from Jackson Laboratory in the United States. A total of 48 SOD1-G93A mice are obtained by the gene identification, and their littermates are used as negative control, and they are randomly divided into 4 groups, which are: (1) a wild-type solvent group (2) a wild-type DLT group (20 mg/kg/day), (3) a model solvent group and (4) a model DLT group (20 mg/kg/day). All mice are administered from the age of 56 days (8 weeks old), and 12 mice in each group are sacrificed from the beginning of administration to the age of 120 days. Histopathological, biochemical and immunological analyses are performed on tissues such as blood, muscles and spinal cords from eyeballs of mice. Compounds are administered to the remaining mice until their deaths, which is used to detect the onset time and survival cycle of mice.
# 3) Gait monitoring experimental test: In order to obtain footprints, the forefeet and hind feet of SOD1-G93A model mice are painted with red and green non-toxic pigments, respectively. The mice walk along a track with a length of 50 cm and a width of 10 cm, and the gaits of the mice are recorded. […] Footprints of the mice are analyzed, and the average of three result statistics is used in the analysis for recording the gait lengths of the mice.
# [3] = system: SOD1-G93A model mice; test: Rotarod experimental test; conditions: model DLT group 20 mg/kg/day vs model solvent group; days 101 to 115; FIG. 1
# Text: 1) Rotarod experimental test: SOD1-G93A model mice will have motor dysfunction when they are onset, and therefore, the motor coordination and balance function of the forelimb and hind limbs can be assessed by detecting the duration that the mice stay on the rotarod.
# as §1
# 2) Rotarod experimental test: From the age of 60 days, the motor function of SOD1-G93A model mice is detected by the rotarod apparatus. […] Motor coordination and balance are evaluated for each mouse by measuring the mouse's total movement time on the rotarod apparatus. Three trials are performed for each mouse, and the longest dwell time before falling is recorded, and the longest dwell time is set at 180 seconds.
# [4] = system: SOD1-G93A model mice; test: Cage experimental test (limb grip strength); conditions: model DLT group 20 mg/kg/day vs model solvent group; age of 14 to 15 weeks; FIG. 3
# Text: 3) Cage experimental test: The SOD1-G93A model mice show atrophy of the hind limbs and decreased grip strength of the limbs after the onset of the disease. The handing strength at the limbs of the mice is detected by the cage experimental test.
# as §2, with “Compounds are administered to the remaining mice until their deaths, which is used to detect the onset time and survival cycle of mice.” left out
# 4) Cage experimental test: From the 8th week, the test is carried out once a week. […] The maximum time for the mice to grip the cage cover is recorded, the maximum time is set to be 90 seconds, and the specific time is recorded when it is less than 90 seconds. […]
smiles,measurement,setting,value
Clc1ccc2c(c1)CCc1cccnc1C2=C1CCNCC1 [desloratadine],onset time (first fall from the rotarod),"[1]; model solvent group 97.6±1.473 d, FIG. 4",103.4 ± 1.705 days
same,survival cycle (failure to complete the righting reflex within 30 seconds),"[1]; model solvent group 126±1.721 d, FIG. 5",131.6 ± 1.51 days
same,gait length analysis,[2],significantly better
same,time stayed on the rotarod,[3],much longer period of time
same,persistence in gripping the cage cover,[4],persist better
